Like-named read-outs stand apart in the source and are kept apart here.
System: HCV replicon in Huh-7 cells
Test: HCV replicon assay (NPT ELISA) for inhibition of HCV replication
Format: cell-based
Details: Hepatitis C virus, Huh-7, 72 h, HCV replicon-containing Huh-7 cells, three days incubation
Experimental: Compounds claimed herein are tested for the ability to inhibit viral replication of the Hepatitis C replicon in cultured cells in which the HCV replicon construct has been incorporated. The HCV replicon system was described by Bartenschlager, et. al (Science, 285, pp. 110-113 (1999)). The replicon system is predictive of in vivo anti-HCV activity; compounds that are active in humans uniformly evidence activity in the replicon assay.
In this assay HCV replicon containing cells are treated with different concentrations of the test compound to ascertain the ability of the test compound to suppress replication of the HCV replicon. As a positive control, HCV replicon-containing cells are treated with different concentrations of interferon alpha, a known inhibitor of HCV replication. The replicon assay system includes Neomycin Phosphotransferase (NPT) as a component of the replicon itself in order to detect the transcription of replicon gene products in the host cell. Cells in which the HCV replicon is actively replicating have high levels of NPT; the level of NPT is proportional to HCV replication. […] The NPT level of each sample is measured using a captured ELISA.
A protocol for testing compounds for the ability to inhibit viral replication of the Hepatitis C replicon cultured cells in which the replicon construct has been incorporated, follows.
The HCV replicon contains, 5′-3′, the HCV-IRES, the neomycin phosphotransferase (neo) gene, the IRES of encephalomyocarditis virus, which directs translation of HCV sequences NS3 to NS5B, and the 3′-NTR. The sequence of the HCV replicon has been deposited in GenBank (Accession no. AJ242652).
The replicon is transfected into Huh-7 cells using standard methods such as electroporation.
The equipment and materials include, but are not limited to, Huh-7 HCV replicon-containing cells, maintenance media (DMEM (Dulbecco's modified Eagle media) supplemented with 10% FBS, L-glutamine, non-essential amino acids, penicillin (100 units/ml), streptomycin (100 micrograms/ml), and 500 micrograms/ml of Geneticin (G418), screening media (DMEM supplemented with 10% FBS, L-glutamine, non-essential amino acids, penicillin (100 units/ml) and streptomycin (100 micrograms/ml)), 96 well tissue culture plates (flat bottom), 96 well plates (U bottom for drug dilution), Interferon alpha for positive control, fixation reagent (such as methanol:acetone), primary antibody (rabbit anti-NPTII), secondary antibody: Eu-N11, and enhancement solution.
HCV replicon-containing cells support high levels of viral RNA replicon replication when their density is suitable. Over-confluency causes decreased viral RNA replication. Therefore, cells must be kept growing in log phase in the presence of 500 micrograms/ml of G418. Generally, cells should be passed twice a week at 1: 4-6 dilution. Cell maintenance is conducted as follows:
HCV replicon-containing cells are examined under a microscope to ensure that cells growing well. Cells are rinsed once with PBS and 2 ml trypsin is added. The cell/trypsin mixture is incubated at 37° C. in a CO2 incubator for 3-5 minutes. After incubation 10 ml of complete media is added to stop the trypsinization reaction. Cells are blown gently, put into a 15 ml tube, and spun at 1200 rpm for 4 minutes. The trypsin/medium solution is removed. Medium (5 ml) is added and the cells are mixed carefully. The cells are counted.
The cells are then seeded onto 96-well plates at a density of 6000-7500 cells/100 microliters/well (6-7.5×10^5 cells/10 ml/plate). The plates are then incubated at 37° C. in a 5% CO2 incubator.
Cells are examined under a microscope approximated 24 hours after seeding and prior to adding drugs. If counting and dilution were performed correctly, cells are 60-70% confluent and nearly all cells should attach and spread evenly in the well.
HCV replicon-containing cells are rinsed with once PBS once; 2 mls of trypsin are then added. Cells are incubated at 37° C. in a 5% CO2 incubator for 3-5 minutes. […]

SMILES | EC50 (read-out: EC50) [µM] | EC50 [µM]
COc1ccc2c(O[C@@H]3C[C@H]4C(=O)N[C@@]5(C(=O)NS(=O)(=O)C6CC6)C[C@@H]5/C=C\CCCC(=O)N[C@H](C(C)(C)C)C(=O)N4C3)cc(-c3ccccc3)nc2c1 [Compound 9, (2R,6R,13aR,14aS,16aS,Z)-6-tert-butyl-N-(cyclopropylsulfonyl)-2-(7-methoxy-2-phenylquinolin-4-yloxy)-5,8,16-trioxo-1,2,3,5,6,7,8,9,10,11,13a,14,14a,15,16,16a-hexadecahydrocyclopropa[n]pyrrolo[2,1-c] [1,4,7]triazacyclopentadecine-14a-carboxamide] | < 1 | –
COC(=O)CC1NC(=O)CCC/C=C\[C@@H]2C[C@@]2(C(=O)NS(=O)(=O)C2CC2)NC(=O)[C@@H]2C[C@@H](Oc3cc(-c4ccccc4)nc4cc(OC)ccc34)CN2C1=O (stereo partly drawn) [Compound 13, methyl 2-((2R,14aR,16aS,Z)-14a-(cyclopropylsulfonylcarbamoyl)-2-(7-methoxy-2-phenylquinolin-4-yloxy)-5,8,16-trioxo-1,2,3,5,6,7,8,9,10,11,13a,14,14a,15,16,16a-hexadecahydrocyclopropa[n]pyrrolo[2,1-c] [1,4,7]triazacyclopentadecin-6-yl)acetate] | 1 to 10 | –
COc1ccc2c(O[C@@H]3C[C@H]4C(=O)N[C@]5(C(=O)NS(=O)(=O)C6CC6)C[C@H]5/C=C\CCCC(=O)N(C)[C@@H](C(C)(C)C)C(=O)N4C3)cc(-c3ccccc3)nc2c1 [Compound 10, (2R,6S,13aS,14aR,16aS,Z)-6-tert-butyl-N-(cyclopropylsulfonyl)-2-(7-methoxy-2-phenylquinolin-4-yloxy)-7-methyl-5,8,16-trioxo-1,2,3,5,6,7,8,9,10,11,13a,14,14a,15,16,16a-hexadecahydrocyclopropa[n]pyrrolo[2,1-c] [1,4,7]triazacyclopentadecine-14a-carboxamide] | > 10 | –
CCOC(=O)[C@]12C[C@H]1/C=C\CCCC(=O)N[C@@H](C(C)(C)C)C(=O)N1C[C@H](Oc3cc(-c4ccccc4)nc4cc(OC)ccc34)C[C@H]1C(=O)N2 [Compound 2, (2R,6S,13aS,14aS,16aS,Z)-ethyl 6-tert-butyl-2-(7-methoxy-2-phenylquinolin-4-yloxy)-5,8,16-trioxo-1,2,3,5,6,7,8,9,10,11,13a,14,14a,15,16,16a-hexadecahydrocyclopropa[n]pyrrolo[2,1-c] [1,4,7]triazacyclopentadecine-14a-carboxylate] | > 10 | –
COC(=O)C[C@@H]1NC(=O)CCC/C=C\[C@@H]2C[C@@]2(C(=O)NS(=O)(=O)C2CC2)NC(=O)[C@@H]2C[C@@H](Oc3cc(-c4ccccc4)nc4cc(OC)ccc34)CN2C1=O [Compound 12, methyl 2-((2R,6S,14aR,16aS,Z)-14a-(cyclopropylsulfonylcarbamoyl)-2-(7-methoxy-2-phenylquinolin-4-yloxy)-5,8,16-trioxo-1,2,3,5,6,7,8,9,10,11,13a,14,14a,15,16,16a-hexadecahydrocyclopropa[n]pyrrolo[2,1-c] [1,4,7]triazacyclopentadecin-6-yl)acetate] | 1 to 10 | –
CCOC(=O)[C@@]12C[C@@H]1/C=C\CCCC(=O)N[C@@H](C(C)(C)C)C(=O)N1C[C@H](Oc3cc(-c4ccccc4)nc4cc(OC)ccc34)C[C@H]1C(=O)N2 [Compound 1, (2R,6S,13aR,14aR,16aS,Z)-ethyl 6-tert-butyl-2-(7-methoxy-2-phenylquinolin-4-yloxy)-5,8,16-trioxo-1,2,3,5,6,7,8,9,10,11,13a,14,14a,15,16,16a-hexadecahydrocyclopropa[n]pyrrolo[2,1-c] [1,4,7]triazacyclopentadecine-14a-carboxylate] | > 10 | –
COc1ccc2c(O[C@@H]3C[C@H]4C(=O)N[C@]5(C(=O)NS(=O)(=O)C6CC6)C[C@H]5/C=C\CCCC(=O)N[C@@H](CC(=O)N5CCCC(F)(F)C5)C(=O)N4C3)cc(-c3nc(C(C)C)cs3)nc2c1C [Compound 17, (2R,6S,14aR,16aS,Z)-N-(cyclopropylsulfonyl)-6-(2-(3,3-difluoropiperidin-1-yl)-2-oxoethyl)-2-(2-(4-isopropylthiazol-2-yl)-7-methoxy-8-methylquinolin-4-yloxy)-5,8,16-trioxo-1,2,3,5,6,7,8,9,10,11,13a,14,14a, 15,16,16a-hexadecahydrocyclopropa[n] pyrrolo[2,1-c][1,4,7]triazacyclopenta-decine-14a-carboxamide] | < 1 | –
COc1ccc2c(O[C@@H]3C[C@H]4C(=O)N[C@]5(C(=O)NS(=O)(=O)C6CC6)C[C@H]5/C=C\CCCC(=O)N[C@H](C(C)(C)C)C(=O)N4C3)cc(-c3ccccc3)nc2c1 [Compound 5, (2R,6R,13aS,14aR,16aS,Z)-6-tert-butyl-N-(cyclopropylsulfonyl)-2-(7-methoxy-2-phenylquinolin-4-yloxy)-5,8,16-trioxo-1,2,3,5,6,7,8,9,10,11,13a,14,14a,15,16,16a-hexadecahydrocyclopropa[n]pyrrolo[2,1-c] [1,4,7]triazacyclopentadecine-14a-carboxamide] | > 10 | –
C=CCCCC(=O)N[C@@H](C(=O)N1C[C@H](Oc2cc(-c3ccccc3)nc3cc(OC)ccc23)C[C@H]1C(=O)N[C@]1(C(=O)NS(=O)(=O)C2CC2)C[C@H]1C=C)C(C)(C)C [Compound 7, (2S,4R)-N-((1R,2S)-1-(cyclopropylsulfonylcarbamoyl)-2-vinylcyclopropyl)-1-((R)-2-hex-5-enamido-3,3-dimethylbutanoyl)-4-(7-methoxy-2-phenylquinolin-4-yloxy)pyrrolidine-2-carboxamide] | 1 to 10 | –
COc1ccc2c(O[C@@H]3C[C@H]4C(=O)N[C@]5(C(=O)NS(=O)(=O)C6CC6)C[C@H]5/C=C\CCCC(=O)N[C@@H](C(C)(C)C)C(=O)N4C3)cc(-c3nc(C(C)C)cs3)nc2c1C [Compound 19, (2R,6S,14aR,16aS,Z)-6-tert-butyl-N-(cyclopropylsulfonyl)-2-(2-(4-isopropyithiazol-2-yl)-7-methoxy-8-methylquinolin-4-yloxy)-5,8,16-trioxo-1,2,3,5,6,7,8,9,10,11,13a,14,14a,15,16,16a-hexadecahydrocyclopropa[n]pyrrolo[2,1-c] [1,4,7]triazacyclopentadecine-14a-carboxamide] | 1 to 10 | –
COc1ccc2c(O[C@@H]3C[C@H]4C(=O)N[C@]5(C(=O)NS(=O)(=O)C6CC6)C[C@H]5/C=C\CCCC(=O)N[C@@H](CC(=O)OC(C)(C)C)C(=O)N4C3)cc(-c3nc(C(C)C)cs3)nc2c1C [Compound 16, tert-butyl 2-((2R,6S,14aR,16aS,Z)-14a-(cyclopropylsulfonylcarbamoyl)-2-(2-(4-isopropyithiazol-2-yl)-7-methoxy-8-methylquinolin-4-yloxy)-5,8,16-trioxo-1,2,3,5,6,7,8,9,10,11,13a,14,14a,15,16,16a-hexadecahydrocyclopropa[n]pyrrolo [2,1-c][1,4,7]triazacyclopentadecin-6-yl)acetate] | < 1 | ≤ 10
COc1ccc2c(O[C@@H]3C[C@H]4C(=O)N[C@]5(C(=O)NS(=O)(=O)C6CC6)C[C@H]5/C=C\CCCC(=O)N[C@@H](CC(=O)N5CCCCC5)C(=O)N4C3)cc(-c3ccccc3)nc2c1 [Compound 15, (2R,6S,14aR,16aS,Z)-N-(cyclopropylsulfonyl)-2-(7-methoxy-2-phenylquinolin-4-yloxy)-5,8,16-trioxo-6-(2-oxo-2-(piperidin-1-yl)ethyl)-1,2,3,5,6,7,8,9,10,11,13a,14,14a,15,16,16a hexadecahydrocyclopropa[n]pyrrolo [2,1-c][1,4,7]triazacyclopentadecine-14a-carboxamide] | < 1 | –
